Tests used:
Assay in all cases: relative viability (nuclei count vs DMSO), 5 days (fraction); higher = more cells survive
[1] = compound: CCN(CCO)CCCC(C)Nc1ccnc2cc(Cl)ccc12 [Hydroxychloroquine] + CC(C)C[C@H](NC(=O)[C@H](Cc1ccccc1)NC(=O)c1cnccn1)B(O)O [Bortezomib] (partner 0.002 µM)
Method in brief: (§1)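 For relative viability, nuclei counts in treated wells were divided by those in vehicle wells. Lung cancer cell lines had been pin-tool dosed in 1536-well plates the day after seeding and cultured for 5 days, then fixed and stained in one step (final 0.05% Triton X-100, 1% formaldehyde, 1 ug/ml Hoechst) and imaged at 4×. Doses were one drug alone or a fixed anchor-drug dose plus five library-drug doses (not always all listed) in √10 steps, and values are duplicate-plate medians.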

[2] = compound: CCN(CCO)CCCC(C)Nc1ccnc2cc(Cl)ccc12 [Hydroxychloroquine] + CS(=O)(=O)CCNCc1ccc(-c2ccc3ncnc(Nc4ccc(OCc5cccc(F)c5)c(Cl)c4)c3c2)o1 [Lapatinib] (partner 2 µM)
Method in brief: as §1

[3] = compound: CCN(CCO)CCCC(C)Nc1ccnc2cc(Cl)ccc12 [Hydroxychloroquine] + NC(=O)Nc1cc(-c2cccc(F)c2)sc1C(=O)N[C@H]1CCCNC1 [AZD7762] (partner 0.2 µM)
Method in brief: as §1

[4] = compound: CCN(CCO)CCCC(C)Nc1ccnc2cc(Cl)ccc12 [Hydroxychloroquine] + Nc1ncn([C@H]2C[C@H](O)[C@@H](CO)O2)c(=O)n1 [Decitabine] (partner 2 µM)
Method in brief: as §1

| Cell Line | relative viability ([1]; first compound 0.5 µM) | relative viability ([1]; first compound 1.581 µM) | relative viability ([1]; first compound 5 µM) | relative viability ([1]; first compound 15.81 µM) | relative viability ([1]; first compound 50 µM) | relative viability ([2]; first compound 0.5 µM) | relative viability ([2]; first compound 1.581 µM) | relative viability ([2]; first compound 5 µM) | relative viability ([2]; first compound 15.81 µM) | relative viability ([2]; first compound 50 µM) | relative viability ([3]; first compound 0.5 µM) | relative viability ([3]; first compound 1.581 µM) | relative viability ([3]; first compound 5 µM) | relative viability ([3]; first compound 15.81 µM) | relative viability ([3]; first compound 50 µM) | relative viability ([4]; first compound 0.5 µM) | relative viability ([4]; first compound 1.581 µM) | relative viability ([4]; first compound 5 µM) | relative viability ([4]; first compound 15.81 µM) | relative viability ([4]; first compound 50 µM) |
| --- | --- | --- | --- | --- | --- | --- | --- | --- | --- | --- | --- | --- | --- | --- | --- | --- | --- | --- | --- | --- |
| NCI-H1437 | 0.516 | 0.737 | 0.505 | 0.483 | 0.446 | 0.833 | 1.05 | 0.885 | 0.758 | 0.845 | 1.13 | 1.15 | 1.08 | 1.14 | 1.14 | 0.56 | 0.617 | 0.587 | 0.562 | 0.636 |
| NCI-H1651 | 0.947 | 0.932 | 0.866 | 0.982 | 0.943 | 0.811 | 0.925 | 0.729 | 0.979 | 0.988 | 0.501 | 0.585 | 0.47 | 0.451 | 0.457 | 0.626 | 0.649 | 0.652 | 0.633 | 0.509 |
| NCI-H1666 | 0.907 | 0.658 | 0.652 | 0.714 | 0.772 | 0.572 | 0.483 | 0.681 | 0.61 | 0.538 | 0.891 | 0.791 | 0.806 | 0.774 | 0.72 | 0.707 | 0.691 | 0.759 | 0.792 | 0.635 |
| NCI-H1734 | 0.98 | 0.918 | 1.03 | 0.918 | 1.01 | 1.13 | 0.99 | 0.992 | 1.05 | 0.99 | 0.62 | 0.562 | 0.649 | 0.644 | 0.622 | 0.486 | 0.482 | 0.459 | 0.491 | 0.497 |
| NCI-H1755 | 0.955 | 0.868 | 0.918 | 0.927 | 0.953 | 1.06 | 0.875 | 1.02 | 1 | 1.02 | 0.616 | 0.447 | 0.396 | 0.445 | 0.514 | 0.707 | 0.644 | 0.727 | 0.694 | 0.656 |
| NCI-H1792 | 0.979 | 0.955 | 1.02 | 1.05 | 1.17 | 0.889 | 0.923 | 0.831 | 0.793 | 0.93 | 0.762 | 0.692 | 0.57 | 0.601 | 0.836 | 0.56 | 0.521 | 0.563 | 0.461 | 0.583 |
| NCI-H1915 | 1.07 | 0.953 | 1.02 | 0.923 | 1.03 | 0.958 | 0.91 | 1 | 1.07 | 1.02 | 0.65 | 0.742 | 0.731 | 0.711 | 0.707 | 0.252 | 0.247 | 0.273 | 0.252 | 0.263 |
| NCI-H1975 | 0.343 | 0.333 | 0.342 | 0.379 | 0.354 | 0.989 | 0.867 | 0.874 | 0.891 | 1.18 | 0.679 | 0.659 | 0.752 | 0.698 | 0.754 | 0.384 | 0.372 | 0.378 | 0.408 | 0.415 |
| NCI-H1993 | 1.01 | 0.884 | 1.04 | 1.13 | 1.03 | 0.751 | 0.759 | 0.899 | 0.834 | 0.839 | 0.699 | 0.597 | 0.927 | 0.79 | 0.817 | 0.664 | 0.635 | 0.705 | 0.688 | 0.606 |
| NCI-H2085 | 0.987 | 0.94 | 1.24 | 1.07 | 1.1 | 0.83 | 0.666 | 0.832 | 0.742 | 0.873 | 1.03 | 0.933 | 0.922 | 0.927 | 1.06 | 0.623 | 0.507 | 0.604 | 0.606 | 0.578 |
| NCI-H2087 | 0.829 | 0.959 | 0.835 | 0.869 | 1.1 | 1.11 | 0.907 | 0.942 | 0.946 | 1.11 | 1.33 | 1.19 | 1.46 | 1.32 | 1.48 | 0.265 | 0.258 | 0.242 | 0.219 | 0.294 |
| NCI-H2126 | 1.11 | 1.07 | 1.09 | 1.1 | 1.18 | 0.74 | 0.649 | 0.761 | 0.797 | 0.816 | 1.07 | 1.12 | 0.984 | 1.08 | 1.03 | 0.584 | 0.547 | 0.57 | 0.579 | 0.566 |
| NCI-H2347 | 0.979 | 0.911 | 0.931 | – | 0.878 | 0.882 | 0.842 | 1.09 | 0.922 | 0.958 | 0.657 | 0.692 | 0.806 | 0.701 | 0.882 | 0.658 | 0.536 | 0.618 | 0.573 | 0.636 |
| NCI-H2405 | 1.03 | 0.918 | 1.02 | 0.989 | 1.04 | 1.09 | 0.998 | 1.1 | 1.04 | 1.15 | 0.879 | 0.841 | 0.717 | 0.675 | 0.768 | 0.718 | 0.743 | 0.774 | 0.69 | 0.761 |
| NCI-H3122 | 0.981 | 1.01 | 1.05 | 1.05 | 1.07 | 1.02 | 1.01 | 1.05 | 1 | 1.07 | 0.956 | 0.976 | 1.06 | 0.993 | 1.13 | 0.429 | 0.413 | 0.468 | 0.426 | 0.403 |
| PC-3 [JPC-3] | 0.787 | 0.841 | 0.812 | 0.694 | 0.94 | 0.485 | 0.423 | 0.421 | 0.46 | 0.501 | 0.905 | 0.882 | 0.652 | 0.727 | 0.774 | 0.814 | 0.767 | 0.805 | 0.792 | 0.761 |

Reference: the supplement of paper PMC10307832
